Assay results published in patent US8414870B2, “Benzylidene substituted 2,4-pentanedione compounds and use thereof as stabilizers” (Sytheon, Ltd., priority 2010, dated 2013).

Tests used:
[1] = Peroxynitrile antioxidant capacity; details: method of Zhang et al. 2007
Source text: (§1) The antioxidant profile of the compound of Example 1, Synoxyl™ AS, was compared to two widely used commercial antioxidants, natural tocopherol and Oxynex® ST, a proprietary stabilizer based on Diethylhexyl Syringylidene Malonate (DESM), available form EMD Chemicals, Inc., of Gibbstown, N.J., USA. Several test methods were employed.

[2] = Superoxide antioxidant capacity; details: method of Dubost et al. 2007
Source text: as §1

[3] = Stabilization of colored shampoo, fluorescent light aging; format: physicochemical; details: 0.4 g in 120 g shampoo, ambient temperature, 4 weeks (unmodified shampoo 21.6)
Protocol: The stabilizer compound according to Example 1, Synoxyl™ AS, was added to a commercial shampoo formulation in order to evaluate its ability to reduce the amount of dye fading following exposure to fluorescent lighting. The sample was prepared by dissolving 0.4 g of Synoxyl™ AS in 5 ml of ethanol and then adding the solution to 120 g of Suave® Natural Fresh Mountain Strawberry Shampoo with agitation and agitated for 15 minutes. A sample of the unmodified shampoo and the modified shampoo are then placed into 20 ml glass scintillation vials. Both sets of vials were weathered under fluorescent light aging at ambient temperature for 4 weeks. The L*a*b coordinates before and after exposure are measured using X-Rite 938 Spectra-densitometer. Color change is expressed as Delta E (ΔE) which is calculated by the formula: ΔE=[(ΔL*)^2+(Δa*)^2+(Δb*)^2]^1/2

[4] = Singlet oxygen antioxidant capacity; details: method of Zhang et al. 2009
Source text: as §1

[5] = Hydroxyl radical antioxidant capacity; details: method of Ou et al. 2002
Source text: as §1

[6] = Photostabilization of water-soluble dyes, solar simulated light; format: physicochemical; details: 0.05% in dye premix; solar simulated light ~40 hours (without stabilizer color lost within about 2 hours)
Protocol: The stabilizer compound identified as Synoxyl™ AS according to Example 1 was added to two dye premix formulations as set forth in Table 9 in order to evaluate its ability to reduce the amount of dye fading following exposure to solar simulated light. Control samples without the Synoxyl™ AS were also subjected to the same conditions.

[7] = Peroxyl radical antioxidant capacity (ORAC); details: method of Ou et al. 2001
Source text: as §1

[8] = cited from earlier work
[9] = Photostabilization of avobenzone in ethanol test solution under sun simulator; format: physicochemical
Protocol: A comparative photostabilization study was conducted comparing the photostabilization efficacy of Synoxy™ AS with Octocrylene and Oxynex® ST in the stabilization of avobenzone. Samples for evaluation were prepared as follows:
Solutions of the photosensitive material and photostabilizer in ethanol were prepared, typically at a 1:1 to 1:5 weight ratio. A base test solution of 3% Avobenzone+5% Octyl salicylate+10% Homoslate in ethanol (the “Test Solution”) was made. Four additional solutions were prepared by adding 2% Synoxyl™ AS, 4% Octocrylene, 2% Oxynex® ST, and 2% Dehydrozingerone, respectively, to four aliquots of the Test Solution.
Samples of each solution were prepared as ultra h n films between two quartz plates so as to obtain a minimum of 90% light transmission over the entire spectrum range of non absorbing chromophores. […] Each sample was then irradiated under sun simulator (754 W/m^2, 2 MED/h, UV dose from 20 to 100 Jules/cm^2) for various durations and light absorption spectra recorded for each sample at given times. The maximal absorption band λmax of each solution was determined before and after irradiation. The amount of the photosensitive materials remaining in solution after irradiation was calculated as the ratio of theft two maximal absorptions.

change in color, Delta E [3]	dye fading [6]	SMILES	Peroxynitrile [1] [Trolox equivalent/gm]	Superoxide [2]	Singlet oxygen [4]	Hydroxyl [5]	Peroxyl (ORAC) [7]	solubility in chloroform ([8]; chloroform)	solubility in ether ([8]; ether)	solubility in methylene chloride ([8]; methylene chloride)	stabilization of photosensitive compounds [9]
12.3	did not fade	COc1cc(C=C(C(C)=O)C(C)=O)ccc1O [Synoxyl ™ AS, 3-(4-Hydroxy, 3-methoxybenzylidene)-2,4-pentanedione]	9	1,042 Trolox equivalent/gm	13,283 Trolox equivalent/gm	47,180 Trolox equivalent/gm	14,363 Trolox equivalent/gm	–	–	–	–
–	–	CC1=C(/C=C/C(C)=C/C=C/C(C)=C/C(=O)O)C(C)(C)CCC1 [tretinoin, all-trans-retinoic acid]	–	–	–	–	–	slightly soluble	sparingly soluble	soluble	–
–	–	COc1cc(/C=C/C(C)=O)ccc1O [Dehydrozingerone]	–	–	–	–	–	–	–	–	fails to stabilize photosensitive compounds
–	–	CCCCC(CC)COC(=O)C(=Cc1cc(OC)c(O)c(OC)c1)C(=O)OCC(CC)CCCC (stereo not shown) [Oxynex ® ST, Diethylhexyl Syringylidene Malonate]	0	0 Trolox equivalent/gm	4,532 Trolox equivalent/gm	0 Trolox equivalent/gm	550 Trolox equivalent/gm	–	–	–	–
